Laboratory results from patent US11535599B2, “Benzisoxazole derivative” (Sumitomo Pharma Co., Ltd., priority 2020, dated 2022).

How the values were obtained:
cerebellar Purkinje cell = experiment: Effect for inhibiting neuronal firing in mouse brain slice (patch-clamp); type: cell-based; conditions: 500 μmol/L
Method: (§1) The action of the present compound for regulating the voluntary firing frequency in subthalamic nucleus neuron and cerebellar Purkinje cell was measured by patch-clamp method in mouse brain slice. […] As stimulus protocol, a current of +200 pA or +400 pA was added thereto for 400 milliseconds and the raised action potential was recorded. […] The stimulus-controlled and digitized action potential was recorded with Clampex software (Version 10.2) (all instruments are from Molecular Device Corporation, Union City, Calif., USA). […] In the measurement after adding the compound of Example 13, the action potential was recorded after the record solution containing the compound of Example 13 was perfused for more than 10 minutes. In the analyses, the percentage of the spike firing frequency (Hz) for the current stimulation after adding the compound of Example 13, per the spike firing frequency (Hz) for the current stimulation before adding the compound of Example 13, was calculated, which was defined as a change rate of spike firing frequency in each cell.

[1] = system: subthalamic nucleus neuron; experiment: as above; type: cell-based; conditions: 500 μmol/L
Method: as §1

[2] = system: unilateral lesion model of nigrostriatal dopamine neuron induced with 6-OHDA; experiment: Anti-tremor effect in 6-OHDA unilateral lesion model; type: in vivo, rat; conditions: 3 mg/kg oral, counted 10 minutes one hour later
Excerpt: A unilateral lesion model of nigrostriatal dopamine neuron induced with 6-OHDA is broadly used for evaluating the drug efficacy for treating Parkinson's disease, as shown in Test 3. In addition, the present model is known to present with jaw tremor which corresponds to the tremor frequency in a patient of Parkinson's disease, thus which is also expected to be a tremor model in Parkinson's disease. With the present model, the effect of the present compound for inhibiting the tremor in Parkinson's disease was evaluated. According to the procedure described in Test 3, a unilateral lesion model of nigrostriatal dopamine neuron was prepared. The compound of Example 13 (3 mg/kg) was orally administered to the model rat. One hour later, the number of tremulous jaw movements was counted for 10 minutes.

## C[C@H](c1noc2ccccc12)S(N)(=O)=O [Example 13, (1R)-1-(1,2-benzoxazol-3-yl)ethane-1-sulfonamide]
Cerebellar Purkinje cell
  spike firing frequency in cerebellar Purkinje cell: significantly inhibited the spike firing frequency
[1]
  spike firing frequency in subthalamic nucleus neuron: significantly inhibited the spike firing frequency
[2]
  number of tremulous jaw movements: significantly decreased the number of tremulous jaw movements per unit time
